Assay results taken from patent US20060142247A1, “Tricyclic heterocycles” (priority 2004, published 2006).

Target: T1, Aurora A (Homo sapiens, UniProt O14965)
T1 construct: C-terminally Histidine4 (His4)-tagged Aurora A full-length protein; His4 (C)
T1 sequence (O14965 1-403): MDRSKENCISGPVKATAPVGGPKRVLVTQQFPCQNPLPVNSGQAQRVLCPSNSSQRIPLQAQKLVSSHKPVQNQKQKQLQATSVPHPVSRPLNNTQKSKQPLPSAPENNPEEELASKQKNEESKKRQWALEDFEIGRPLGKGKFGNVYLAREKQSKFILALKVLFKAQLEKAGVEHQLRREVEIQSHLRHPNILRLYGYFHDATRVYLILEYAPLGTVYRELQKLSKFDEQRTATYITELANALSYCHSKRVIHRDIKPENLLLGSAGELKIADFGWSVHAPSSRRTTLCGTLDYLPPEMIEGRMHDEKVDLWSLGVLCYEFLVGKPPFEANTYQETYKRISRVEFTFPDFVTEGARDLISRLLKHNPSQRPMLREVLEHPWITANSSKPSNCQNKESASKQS
Test: IC50 determination for inhibitors of Aurora A (96 MTP-ELISA)
Type: biochemical
Conditions: His4-tagged full-length Aurora A 250 ng/ml, PKB-GSK2 200 nM, ATP 4 μM, 90 min room temperature, read-out: IC50 Aurora A kinase inhibition
Protocol: Aurora A is a serine threonine kinase involved in spindle assembly and chromosome segregation. The assay is a typically ELISA-type assay where biotinylated substrate (PKB-GSK2) is phosphorylated. Phosphorylation is detected by peroxidase (POD) labelled polyclonal antibody (PAK<M-Ig>S-IgG-POD) and phosphopeptide monoclonal antibody (Mab) (MAK<P-GSK>M-27E5-IgG). The assay is validated for IC50-determination.
Assay plates: 96-well polystyrene plates, streptavidin-coated,
Samples: 10 mM in dimethylsulfoxide (DMSO)
Aurora A-His-4: C-terminally Histidine4 (His4)-tagged Aurora A full-length protein, stock solution 0.7 mg/ml, final conc.: 250 ng/ml
PKB-GSK2: biotinylated peptide derived from human GSK3-alpha sequence (Biotin-SGRARTSSFAEPGG-CONH2), stock solution 600 μM, final conc.: 200 nM
PAK<M-Ig>S-IgG-POD: Anti-mouse IgG, horse radish peroxidase(HRP)-linked Antibody, diluted in 3% BSA/PBS-T (1:10000), (Cell Signaling, Cat. No.: 7076)
MAK<P-GSK>M-27E5-IgG: Phospho-GSK-3-alpha (Ser 21) (27E5) Monoclonal Antibody, stock solution 1.85 mg/ml, diluted in 3% BSA/PBS-T (1:6000), final conc.: 0.31 μg/ml, (Cell Signaling, Cat. No.: 9337B)
ATP: Adenosine-5′-triphosphate 1 mM, diluted in kinase buffer, (Roche Diagnostics GmbH, Cat. No.: 127531-001,), final conc.: 4 μM
TRIS: 2-Amino-2-hydroxymethyl-1,3-propoanediol (“tris-(hydroxymethyl)-aminomethane”) (MERCK, Cat. No.: 108382.2500)
BSA: Bovine Serum Albumin Fraction V, fatty acid free (Roche Diagnostics GmbH, Cat. No. 9100221)
EDTA Titriplex III (di-Sodium-EDTA di-Hydrate), 120 mM, (MERCK, Cat. No.: 1.08418.1000)
ABTS buffer: ABTS (2,2′-azino-bis(3-ethylbenzthiazoline-6-sulfonic acid)) 16.7 mg/ml (Roche Diagnostics GmbH, Cat. No.: 1204530) • ABTS tablets: dissolve one ABTS tablet in 50 ml of working solution (ABTS buffer) (Roche Diagnostics GmbH, Cat. No.: 1112422 ) • Tween 20: Polysorbat 20 (Roche Diagnostics GmbH, Cat. No.: 10006394-001) • DTT: 1,4-Dithiothreitol (Roche Diagnostics GmbH, Cat. No.: 197777) • MgCl2×6H2O MERCK, Cat. No.: 105833.1000 • Kinase buffer: 50 mM TRIS, 10 mM MgCl2, 1 mM DTT, 0.1% Tween 20, pH 7.8 PBS-T (=Wash buffer) (PBS-T)10 g/l PBS(Phosphate buffered saline) with 0.033% Tween 20 • 3% BSA/PBS-T: 3% BSA dissolved in PBS-T Method
This assay is performed in 96-well format for IC50 determination with 5 samples (each with 8 concentrations by twofold testing), 100 μl incubation volume and the following plate layout:
S samples, with ATP, 1% DMSO, final conc.: a=100 μM, b=20 μM, c=4 μM, d=0.8 μM, e=0.16 μM, f=0.032 μM, g=0.0064 μM, h=0.00128 μM Step/Action • (1) Sample preparation: add 24 μl per well samples (descending sequence) diluted in kinase buffer to assay plate (final conc. for DMSO 1%). • 2. Add directly 16 μl Aurora-A-his-4 diluted in kinase buffer to assay plate. • 3. Add directly 40 μl per well PKB-GSK2/ATP mixture to assay plate, (final conc.: Aurora A=250 ng/ml, GSK2=200 nM, ATP=4 μM). Negative control: without ATP. • 4. Incubate assay plate for exactly 90 min at room temperature. • 5. Stop reaction by adding 20 μl EDTA in all wells. • 6. Wash assay plate 3× with 200 μl washing buffer per well. • 7. Add 100 μl MAK<P-GSK>M27E5-IgG (1:10000) and PAK<M-Ig>S-IgG-POD (1:6000) dissolved in 3% BSA/PBS-T to assay plate per well. • 8. Incubate assay plate for 60 min at room temperature. • 9. Wash assay plate 3× with 200 μl washing buffer per well • 10. Add 100 μl ABTS solution to assay plate per well, incubate for approx. 4 min at RT on MTP shaker. • 11. Measure absorption at 405/492 nm. • 12. Calculate % inhibition as: (1−(Esample−ENC)/(EPC−ENC))×100 1)
13. Calculate IC50 using a non-linear curve fit (XLfit software (ID Business Solution Ltd., Guilford, Surrey, UK))

IC50 [nM] | Structure (SMILES)
1 to 100 | CC1(C)C(=O)N(Cc2nnn[nH]2)c2cc3[nH]c(-c4n[nH]c5ccccc45)nc3cc21 [Example 33, 2-(1H-Indazol-3-yl)-7,7-dimethyl-5-(1H-tetrazol-5-ylmethyl)-5,7-dihydro-3H-imidazo[4,5-f]indol-6-one]
100 to 250 | CC1(C)CC(=O)Nc2cc3nc(-c4n[nH]c5ccccc45)[nH]c3cc21 [Example 10, 2-(1H-Indazol-3-yl)-8,8-dimethyl-1,5,7,8-tetrahydro-imidazo[4,5-g]quinolin-6-one]
